Laboratory results taken from patent publication US20250339409A1, “USES OF PAN BET INHIBITORS” (VYNE THERAPEUTICS INC., priority 2021, published 2025).
Where “and” joins values, the source holds several entries; their conditions need not be identical. Identical values can stand only once. Marks after values point to notes of the source that are not given here.

Test system: anti collagen antibodies induced arthritis (ACAIA)
Test: Anti collagen antibodies induced arthritis (ACAIA) in mice, intra-articular treatment: paw thickness, arthritis clinical score, body weight;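 further: mouse arthritis induced by IV anti-collagen mAb on day 0 plus IP LPS on day 4, with body weight, caliper paw thickness and 0-4 paw score tracked against a day 0 baseline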

Cn1cc(-c2cccc(O)c2Oc2ccccc2)c2cc[nH]c2c1=O [BETi1]
Paw thickness of treated leg (Avg.) (0.1 mg/kg IA (Group 4), Day 7): 2.82 mm | Paw thickness of untreated leg (Avg.) (0.1 mg/kg IA (Group 4), Day 7): 2.87 mm | Percent change of weight per day (Av) (0.1 mg/kg IA (Group 4), Day 7): 88.48% | Δ clinical score untreated -treated, Avg. Delta (0.1 mg/kg IA (Group 4), Day 7): 0.00 points | Clinical score of treated leg (Avg.) (0.1 mg/kg IA (Group 4), Day 8): 2.29 points | Paw thickness Avg. Delta untreated -treated (0.1 mg/kg IA (Group 4), Day 8): −0.05 mm | Paw thickness of treated leg (Avg.) (0.1 mg/kg IA (Group 4), Day 8): 2.86 mm | Paw thickness of untreated leg (Avg.) (0.1 mg/kg IA (Group 4), Day 8): 2.81 mm | Percent change of weight per day (Av) (0.1 mg/kg IA (Group 4), Day 8): 87.72% | Δ clinical score untreated -treated, Avg. Delta (0.1 mg/kg IA (Group 4), Day 8): 0.00 points | Clinical score of treated leg (Avg.) (0.1 mg/kg IA (Group 4), Day 10): 2.43 points | Paw thickness Avg. Delta untreated -treated (0.1 mg/kg IA (Group 4), Day 10): 0.05 mm | Paw thickness of treated leg (Avg.) (0.1 mg/kg IA (Group 4), Day 10): 2.94 mm | Paw thickness of untreated leg (Avg.) (0.1 mg/kg IA (Group 4), Day 10): 2.99 mm | Percent change of weight per day (Av) (0.1 mg/kg IA (Group 4), Day 10): 88.75% | Δ clinical score untreated -treated, Avg. Delta (0.1 mg/kg IA (Group 4), Day 10): 0.14 points | Clinical score of treated leg (Avg.) (0.1 mg/kg IA (Group 4), Day 12): 2.57 points | Paw thickness Avg. Delta untreated -treated (0.1 mg/kg IA (Group 4), Day 12): −0.05 mm | Paw thickness of treated leg (Avg.) (0.1 mg/kg IA (Group 4), Day 12): 3.10 mm | Paw thickness of untreated leg (Avg.) (0.1 mg/kg IA (Group 4), Day 12): 3.05 mm | Percent change of weight per day (Av) (0.1 mg/kg IA (Group 4), Day 12): 93.51% | Δ clinical score untreated -treated, Avg. Delta (0.1 mg/kg IA (Group 4), Day 12): 0.43 points | Clinical score of treated leg (Avg.) (1 mg/kg IA (Group 3), Baseline): 0.00 points | Paw thickness Avg. Delta untreated -treated (1 mg/kg IA (Group 3), Baseline): 0.04 mm | Paw thickness of treated leg (Avg.) (1 mg/kg IA (Group 3), Baseline): 2.05 mm | Paw thickness of untreated leg (Avg.) (1 mg/kg IA (Group 3), Baseline): 2.09 mm | Percent change of weight per day (Av) (1 mg/kg IA (Group 3), Baseline): 100.00% | Percent change of weight per day (individual animal) (1 mg/kg IA (Group 3), Baseline): 100% | Δ clinical score untreated -treated, Avg. Delta (1 mg/kg IA (Group 3), Baseline): 0.00 points | Clinical score of treated leg (Avg.) (1 mg/kg IA (Group 3), Day 3): 0.00 points | Paw thickness Avg. Delta untreated -treated (1 mg/kg IA (Group 3), Day 3): 0.02 mm | Paw thickness of treated leg (Avg.) (1 mg/kg IA (Group 3), Day 3): 2.11 mm | Paw thickness of untreated leg (Avg.) (1 mg/kg IA (Group 3), Day 3): 2.13 mm | Percent change of weight per day (Av) (1 mg/kg IA (Group 3), Day 3): 99.97% | Percent change of weight per day (individual animal) (1 mg/kg IA (Group 3), Day 3): 100.9804% and 98.22% and 102.4631% and 98.49% and 97.67% | Δ clinical score untreated -treated, Avg. Delta (1 mg/kg IA (Group 3), Day 3): 0.00 points | Clinical score of treated leg (Avg.) (1 mg/kg IA (Group 3), Day 4): 0.00 points | Paw thickness Avg. Delta untreated -treated (1 mg/kg IA (Group 3), Day 4): −0.03 mm | Paw thickness of treated leg (Avg.) (1 mg/kg IA (Group 3), Day 4): 2.22 mm | Paw thickness of untreated leg (Avg.) (1 mg/kg IA (Group 3), Day 4): 2.19 mm | Percent change of weight per day (Av) (1 mg/kg IA (Group 3), Day 4): 101.40% | Percent change of weight per day (individual animal) (1 mg/kg IA (Group 3), Day 4): 101.9608% and 100% (2×) and 103.9409% and 100.9302% | Δ clinical score untreated -treated, Avg. Delta (1 mg/kg IA (Group 3), Day 4): 0.00 points | Clinical score of treated leg (Avg.) (1 mg/kg IA (Group 3), Day 5): 0.00 points | Paw thickness Avg. Delta untreated -treated (1 mg/kg IA (Group 3), Day 5): 0.04 mm | Paw thickness of treated leg (Avg.) (1 mg/kg IA (Group 3), Day 5): 2.13 mm | Paw thickness of untreated leg (Avg.) (1 mg/kg IA (Group 3), Day 5): 2.17 mm | Percent change of weight per day (Av) (1 mg/kg IA (Group 3), Day 5): 91.68% | Percent change of weight per day (individual animal) (1 mg/kg IA (Group 3), Day 5): 93.63% and 89.78% and 94.58% and 88.94% and 89.3% | Δ clinical score untreated -treated, Avg. Delta (1 mg/kg IA (Group 3), Day 5): 0.00 points | Clinical score of treated leg (Avg.) (1 mg/kg IA (Group 3), Day 6): 0.14 points | Paw thickness Avg. Delta untreated -treated (1 mg/kg IA (Group 3), Day 6): 0.23* mm | Paw thickness of treated leg (Avg.) (1 mg/kg IA (Group 3), Day 6): 2.27* mm | Paw thickness of untreated leg (Avg.) (1 mg/kg IA (Group 3), Day 6): 2.50 mm | Percent change of weight per day (Av) (1 mg/kg IA (Group 3), Day 6): 89.39% | Percent change of weight per day (individual animal) (1 mg/kg IA (Group 3), Day 6): 91.67% and 82.67% and 92.61% and 90.45% and 89.77% | Δ clinical score untreated -treated, Avg. Delta (1 mg/kg IA (Group 3), Day 6): 0.57 points | Clinical score of treated leg (Avg.) (1 mg/kg IA (Group 3), Day 7): 0.71 points | Paw thickness Avg. Delta untreated -treated (1 mg/kg IA (Group 3), Day 7): 0.56* mm | Paw thickness of treated leg (Avg.) (1 mg/kg IA (Group 3), Day 7): 2.25** mm | Paw thickness of untreated leg (Avg.) (1 mg/kg IA (Group 3), Day 7): 2.80 mm | Percent change of weight per day (Av) (1 mg/kg IA (Group 3), Day 7): 89.93% | Percent change of weight per day (individual animal) (1 mg/kg IA (Group 3), Day 7): 89.71% and 84% and 93.1% and 89.45% and 90.23% | Δ clinical score untreated -treated, Avg. Delta (1 mg/kg IA (Group 3), Day 7): 0.71 points | Clinical score of treated leg (Avg.) (1 mg/kg IA (Group 3), Day 8): 1.00 points | Paw thickness Avg. Delta untreated -treated (1 mg/kg IA (Group 3), Day 8): 0.56 mm | Paw thickness of treated leg (Avg.) (1 mg/kg IA (Group 3), Day 8): 2.36* mm | Paw thickness of untreated leg (Avg.) (1 mg/kg IA (Group 3), Day 8): 2.92 mm | Percent change of weight per day (Av) (1 mg/kg IA (Group 3), Day 8): 91.22% | Percent change of weight per day (individual animal) (1 mg/kg IA (Group 3), Day 8): 90.69% and 88% and 92.61% and 89.95% | Δ clinical score untreated -treated, Avg. Delta (1 mg/kg IA (Group 3), Day 8): 1.43 points | Clinical score of treated leg (Avg.) (1 mg/kg IA (Group 3), Day 10): 0.71 points | Paw thickness Avg. Delta untreated -treated (1 mg/kg IA (Group 3), Day 10): 0.74 mm | Paw thickness of treated leg (Avg.) (1 mg/kg IA (Group 3), Day 10): 2.21* mm | Paw thickness of untreated leg (Avg.) (1 mg/kg IA (Group 3), Day 10): 2.95 mm | Percent change of weight per day (Av) (1 mg/kg IA (Group 3), Day 10): 93.11% | Percent change of weight per day (individual animal) (1 mg/kg IA (Group 3), Day 10): 92.16% and 94.67% and 93.6% and 93.47% | Δ clinical score untreated -treated, Avg. Delta (1 mg/kg IA (Group 3), Day 10): 1.29 points | Clinical score of treated leg (Avg.) (1 mg/kg IA (Group 3), Day 12): 0.57 points | Paw thickness Avg. Delta untreated -treated (1 mg/kg IA (Group 3), Day 12): 0.80 mm | Paw thickness of treated leg (Avg.) (1 mg/kg IA (Group 3), Day 12): 2.18 mm | Paw thickness of untreated leg (Avg.) (1 mg/kg IA (Group 3), Day 12): 2.98 mm | Percent change of weight per day (Av) (1 mg/kg IA (Group 3), Day 12): 97.09* percent | Percent change of weight per day (individual animal) (1 mg/kg IA (Group 3), Day 12): 95.1% and 100% and 98.03% and 96.98% and 93.49% | Δ clinical score untreated -treated, Avg. Delta (1 mg/kg IA (Group 3), Day 12): 1.86 points | reduction of arthritis score, treated vs untreated paw (1 mg/kg IA, day 12): 76.5% | reduction of paw thickness, treated vs untreated paw (1 mg/kg IA, day 12): 26.8%
